# Laboratory results published in patent publication US5834288A, “KDN-specific deminoneuraminidase from Sphingobacterium multivorum” (Seikagaku Corporation, priority 1994, dated 1998).
# “Also recorded” adds a separate entry of the source. Read-outs that look alike come from different tables or passages of the source.
# Key:
# [1] = test system: enzyme of the present invention (KDNase); assay: Inhibition and activation of the enzyme, 4-MU-KDN method; format: biochemical, Sphingobacterium mOL12-4s; details: for effect on the activity of the enzyme: added at 1 mM
# Procedure: Specifically, 1.4 nmol of 4-MU-KDN was added to an enzyme solution prepared by dissolving the enzyme in 20 μl of 0.1M Tris-acetate buffer (pH 6.0)/0.1M NaCl to perform a reaction at 25° C. for 30 minutes. After the reaction, an aliquot of the reaction solution (20 μl) was mixed with 2.5 ml of 85 mM glycine-carbonate buffer (pH 9.3) to measure the fluorescent strength (exciting wavelength: 365 nm, measuring wavelength: 450 nm). For the measurement of the fluorescent strength, reference was made to Biochemistry, Vol. 18, No. 13, pp. 2783-2787. A fluorescent strength, which was obtained when the reaction was performed in the same manner as described above except that the enzyme was not added, was used as control. An amount of the enzyme, which hydrolyzed 1 nmol of 4-MU-KDN per 1 minute at 25° C., was defined as 1 unit.
# In order to investigate influences of, for example, inorganic ions and EDTA (ethylenediaminetetraacetic acid) on the activity of the enzyme of the present invention, these compounds were added to the reaction solution to perform the enzyme reaction in accordance with the 4-MU-KDN method.
# The influence of the ionic strength on the enzyme of the present invention was investigated.
# 2,3-Dehydro-2-deoxy-N-acetylneuraminic acid is a specific inhibitor for known sialidase which cleaves the ketosidic linkage formed by N-acylneuraminic acid.
# [2] = test system: enzyme of the present invention (KDNase); assay: Substrate specificity: cleavage of ketosidic linkage, detected by thin layer chromatography; format: biochemical, Sphingobacterium mOL12-4s; design: key to Presence or absence of cleavage: Those in which KDN, Neu5Ac, or Neu5Gc was liberated are indicated by "+"; those in which KDN, Neu5Ac, or Neu5Gc was not liberated at all are indicated by "-"; details: for Presence or absence of cleavage: substrate corresponding to 5 μg KDN, Neu5Ac or Neu5Gc, enzyme 80 milliunits, 25° C., 20 hours, pH 6.0, 0.1M NaCl
# Procedure: The reactivity of the enzyme of the present invention was investigated for various KDN-containing complex carbohydrates and carbohydrates and sialic acid-containing complex carbohydrates and carbohydrates.
# Each of the foregoing complex carbohydrates or carbohydrates containing KDN or sialic acid, which corresponded to 5 μg of KDN or N-acetylneuraminicacid (Neu5Ac) or N-glycolylneuraminic acid (Neu5Gc), was allowed to coexist with the enzyme of the present invention (80 milliunits) at 25° C. for 20 hours in 10 μl of 0.1M Tris-acetate buffer (pH 6.0) containing 0.1M NaCl.
# The reaction solution was spotted on a plate for silica gel thin layer chromatography (produced by Merck), and developed for 7 hours with 1-propanol: 25% aqueous ammonia: water=6:1:2.5 (volume ratio). After the development, the plate was dried, on which 10% sulfuric acid ethanol solution was sprayed. The plate was heated at 120° C. to cause color development for the complex carbohydrates or carbohydrates and liberated KDN, Neu5Ac, or Neu5Gc. A control was provided, in which the reaction was performed without addition of the enzyme. Those in which KDN, Neu5Ac, or Neu5Gc was liberated are indicated by "+", and those in which KDN, Neu5Ac, or Neu5Gc was not liberated at all are indicated by "-".
# [3] = test system: enzyme of the present invention (KDNase); assay: Measurement of Michaelis constant and Vmax with 4-MU-KDN as substrate; format: biochemical, Sphingobacterium mOL12-4s; details: 25° C.; for Vmax: pH 6.0
# Procedure: The Michaelis constant (Km) and the maximum enzyme reaction velocity (Vmax) were determined on condition that 4-methylumbelliferyl KDN (4-MU-KDN) was used as a substrate for the enzyme of the present invention. The enzyme (32 milliunits) and the substrate (4-MU-KDN, 6.7 μM) were reacted at 25° C. in 216 μl of a reaction solution (0.1M Tris-acetate buffer (pH 6.0)/0.1M NaCl containing 0.1 mg/ml of bovine serum albumin). As a result, 4-methylumbelliferone (4-MU) was liberated linearly within 1 hour.
# At this enzyme concentration, initial reaction velocities were measured by performing the reaction at 25° C. for 30 minutes in the same reaction solution as described above while variously changing the concentration of 4-MU-KDN in a range of 21 to 167 μM. A Lineweaver-Burkplot was obtained, and thus the Michaelis constant was calculated.
# [4] = test system: Sphingobacterium mOL12-4s; assay: Induction of KDNase in Sphingobacterium mOL12-4s; details: for Number of cells: 0.1% (w/v) added substance in M9 liquid medium, 6.1×10^10 cells inoculated; for Number of cells / KDNase activity per cells / Number of cells, ratio to before addition (value in []) / KDNase activity: 25° C., 24 hours; for Number of cells, ratio to before addition (value in []): before addition = 1; for KDNase activity: supernatant of disrupted cells; for fold induction at 1000 µg/mL: 24 h
# Procedure: Bacterial cells (4.0×10^8) of Sphingobacterium mOL12-4s were inoculated into 40 ml of M9 liquid medium containing 1% (w/v) casein hydrolysate (casamino acid, produced by Gibco) and 1% (w/v) glucose (Glc), and cultivated at 25° C. for 44 hours. Microbial cells (bacterial cells) at the growth phase were collected, and washed twice with M9 liquid medium. The microbial cells (6.1×10^10 cells) were inoculated into 2.0 ml of M9 liquid medium containing 0.1% (w/v) crude KDN-OS, KDN-OS, KDN, Neu5Ac, acid hydrolysate of colominic acid (oligo-Neu5Ac; Kitazume, S. et al., Anal. Biochem., 202, 25-34 (1992)), or Glc, and incubated at 25° C. for 24 hours to measure the number of growable cells and the KDNase activity. The number of cells was determined by diluting each incubated cell cultivation liquid to inoculate an obtained diluted solution into an LB agar medium plate, and counting a number of grown colonies (Kitajima, K. et al., J. Biol. Chem., 269, 21415-21419). In order to measure the KDNase activity of the cells, the cells were collected by means of centrifugation at 5,000 rpm or 1,500× g for 10 minutes. The collected cells were suspended in 0.5 ml of 100 mM Tris-acetate buffer (pH 6.0) containing 100 mM NaCl, and disrupted by means of ultrasonication (50 watts, 1 minute). The disrupted preparation was centrifuged at 10,000 rpm or 6,000× g for 10 minutes to subsequently obtain a supernatant for which the KDNase activity was measured. The numerical value in [] in Table 1 indicates a ratio provided that the activity before the addition is regarded as 1.
# [5] = read-out: KDNase activity per cells, ratio to before addition (value in [])
# [6] = read-out: KDNase activity, ratio to before addition (value in [])
compound,measurement,setting,value
"CC(=O)N[C@H]1[C@H]([C@H](O)[C@H](O)CO)OC(C(=O)O)=C[C@@H]1O [2,3-dehydro-2-deoxy-N-acetylneuraminic acid]",inhibition of the enzyme,[1]; concentration not given,not inhibited
"Cc1cc(=O)oc2cc(OC3(C(=O)O)C[C@H](O)[C@@H](O)[C@H]([C@H](O)[C@H](O)CO)O3)ccc12 (stereo partly drawn) [4-MU-KDN, 4-methylumbelliferyl KDN]",action of the enzyme on the ketosidic linkage (in words),[2],acts on
same,action of the enzyme on the ketosidic linkage (in words),[2]; listed as 4-methylumbelliferyl KDN,can also act on
same,Presence or absence of cleavage,[2],+
same,Vmax,[3],7.4 mM/min/mg protein
same,Km,"[3]; pH 6.0, 0.1M NaCl, 0.1 mg/ml BSA, Lineweaver-Burk plot, 21 to 167 μM substrate",19 µM
same,Vmax,[3]; enzyme 32 milliunits in 216 μl,0.19 µM/min
"CC(=O)NC1C(O)CC(Oc2ccc3c(C)cc(=O)oc3c2)(C(=O)O)OC1C(O)C(O)CO (stereo not drawn) [4-MU-Neu5Ac, 4-Methylumbelliferyl Neu5Ac]",Presence or absence of cleavage,[2],-
"O=C(O)CN(CCN(CC(=O)O)CC(=O)O)CC(=O)O [EDTA, ethylenediaminetetraacetic acid]",effect on the activity of the enzyme,[1],not affected
"O=C[C@H](O)[C@@H](O)[C@H](O)[C@H](O)CO [Glc, glucose]",Number of cells,[4],1.7 × 10^12
same,KDNase activity per cells,[4]; 0.1% (w/v),0.47 milliunit/10^10 cells
same,"Number of cells, ratio to before addition (value in [])",[4]; 0.1% (w/v),28
same,KDNase activity,[4]; 0.1% (w/v),80 milliunit
same,fold induction at 1000 µg/mL,[4]; [5],0.14
same,fold induction at 1000 µg/mL,[4]; [6],4
"O=C(O)C1(O)CC(O)C(O)C(C(O)C(CO)OC2(C(=O)O)CC(O)C(O)C(C(O)C(O)CO)O2)O1 (stereo not drawn) [KDN dimer, KDNα2→8KDN]",Presence or absence of cleavage,[2],+
"O=C(O)C1(O)C[C@H](O)[C@@H](O)[C@H]([C@H](O)[C@H](O)CO)O1 (stereo partly drawn) [KDN, 3-deoxy-D-glycero-D-galacto-nonulosonic acid]",induction of KDNase (in words),[4]; 0.1% (w/v),induced KDNase
same,Number of cells,[4],3.6 × 10^10
same,KDNase activity per cells,[4]; 0.1% (w/v),11 milliunit/10^10 cells
same,"Number of cells, ratio to before addition (value in [])",[4]; 0.1% (w/v),0.59
same,KDNase activity,[4]; 0.1% (w/v),38 milliunit
same,fold induction at 1000 µg/mL,[4]; [5],3.3
same,fold induction at 1000 µg/mL,[4]; [6],1.9
same,inhibition of the enzyme,[1]; 3 mM,inhibited
same,inhibition of the enzyme,[1]; concentration not given,inhibited
[Cl-].[Na+] [NaCl],enzyme activity at low ionic strength,[1]; 50 mM or less,extremely low
same,concentration giving maximum enzyme activity (ionic strength),[1]; FIG. 10,300 mM
"CC(=O)NC1C(O)CC(OC(CO)C(O)C2OC(O)(C(=O)O)CC(O)C2NC(C)=O)(C(=O)O)OC1C(O)C(O)CO (stereo not drawn) [Neu5Ac dimer, N-acetylneuraminic acid (Neu5Ac) dimer]",Presence or absence of cleavage,[2],-
"CC(=O)N[C@H]1[C@H]([C@H](O)[C@H](O)CO)OC(O)(C(=O)O)C[C@@H]1O (stereo partly drawn) [Neu5Ac, N-acetylneuraminic acid]",Number of cells,[4],2.5 × 10^10
same,KDNase activity per cells,[4]; 0.1% (w/v),6.0 milliunit/10^10 cells
same,"Number of cells, ratio to before addition (value in [])",[4]; 0.1% (w/v),0.41
same,KDNase activity,[4]; 0.1% (w/v),15 milliunit
same,fold induction at 1000 µg/mL,[4]; [5],1.8
same,fold induction at 1000 µg/mL,[4]; [6],0.75
CC(=O)NC(CO)C(OC1OC(CO)C(O)C(O)C1O)C(O)C(O)COC1(C(=O)O)CC(O)C(NC(C)=O)C(C(O)C(O)CO)O1 (stereo not drawn) [Neu5Acα2→6(Galβ1→3)GalNAcol],Presence or absence of cleavage,[2],-
"O=C(CO)NC1C(O)CC(OC(CO)C(O)C2OC(O)(C(=O)O)CC(O)C2NC(=O)CO)(C(=O)O)OC1C(O)C(O)CO (stereo not drawn) [Neu5Gc dimer, N-glycolylneuraminic acid (Neu5Gc) dimer]",Presence or absence of cleavage,[2],-
[Ca+2] [calcium ion],effect on the activity of the enzyme,[1],not affected
"CC(=O)N[C@H]1[C@H]([C@H](O)[C@H](O)CO)OC(O)(C(=O)O)C[C@@H]1O (stereo partly drawn) [free sialic acid, sialic acid]",inhibition of the enzyme,[1]; concentration not given,not inhibited
[Mg+2] [magnesium ion],effect on the activity of the enzyme,[1],not affected
[Mn+2] [manganese ion],effect on the activity of the enzyme,[1],not affected
C[C@H](CCC(=O)O)[C@H]1CC[C@H]2[C@@H]3[C@H](O)C[C@@H]4C[C@H](O)CC[C@]4(C)[C@H]3C[C@H](O)[C@]12C [sodium cholate],enzyme activity maintained,"[1]; 0.1%, 30 min",about 90%
same,enzyme activity in the presence of the additive,[1]; 0.5%,substantially disappeared; also recorded: disappears
KDNα2→3Galβ1→4Glcβ1→Cer [KDN-containing ganglioside GM3],Presence or absence of cleavage,[2],+
N-Acetylneuraminic acid lactose [Neu5Ac lactose],Presence or absence of cleavage,[2],-
Triton X-100,inhibition of the enzyme,[1]; concentration not given,not inhibited; also recorded: does not inhibit
colominic acid,Presence or absence of cleavage,[2],-
fetal bovine serum fetuin: fetal bovine serum fetuin purchased from Sigma,Presence or absence of cleavage,[2],-
human transferrin: human transferrin purchased from Sigma,Presence or absence of cleavage,[2],-
